Here are results for 41 molecules from article PMC6627609, “Targeting Quorum Sensing: High-Throughput Screening to Identify Novel LsrK Inhibitors” (International Journal of Molecular Sciences, 2019).

For orientation: inhibition means the change of the read-out against control, counted positive when it falls.

Structures are written as SMILES. Counter-ions that a name gives are not always drawn.

The target in the first test is LsrK (Salmonella typhimurium, UniProt Q8ZKQ6). In words: biochemical. In kind it is biochemical, S. typhimurium.
LsrK, sequence (Q8ZKQ6 whole entry): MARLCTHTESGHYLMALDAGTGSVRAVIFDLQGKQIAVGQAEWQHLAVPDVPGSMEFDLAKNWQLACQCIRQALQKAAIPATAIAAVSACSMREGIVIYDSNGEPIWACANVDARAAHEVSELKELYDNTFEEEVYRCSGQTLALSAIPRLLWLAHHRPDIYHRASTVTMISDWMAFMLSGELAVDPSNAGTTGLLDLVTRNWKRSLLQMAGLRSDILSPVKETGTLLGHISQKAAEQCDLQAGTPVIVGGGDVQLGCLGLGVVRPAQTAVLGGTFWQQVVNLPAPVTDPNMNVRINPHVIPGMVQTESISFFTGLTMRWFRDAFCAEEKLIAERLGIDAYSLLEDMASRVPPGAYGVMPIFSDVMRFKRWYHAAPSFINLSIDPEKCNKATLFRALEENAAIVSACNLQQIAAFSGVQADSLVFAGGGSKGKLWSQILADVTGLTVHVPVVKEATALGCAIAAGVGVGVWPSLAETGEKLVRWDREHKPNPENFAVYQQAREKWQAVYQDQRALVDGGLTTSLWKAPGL
Settings: not given
Consider `CC1(C)S[C@@H]2[C@H](NC(=O)[C@H](C(=O)O)c3ccsc3)C(=O)N2[C@H]1C(=O)O` [TICARCILLIN DISODIUM], for which the inhibition at 50 µM was determined as 0%.

As for `Clc1ccccc1CN1CCc2sccc2C1` [TICLOPIDINE HYDROCHLORIDE], the inhibition at 50 µM is 1%. Regarding `CC[C@H]1OC(=O)C[C@@H](O)[C@H](C)[C@@H](O[C@@H]2O[C@H](C)[C@@H](O)[C@H](N(C)C)[C@H]2O)[C@@H](CCN2C[C@H](C)C[C@H](C)C2)C[C@@H](C)C(=O)/C=C/C(C)=C/[C@@H]1CO[C@@H]1O[C@H](C)[C@@H](O)[C@@H](OC)[C@H]1OC` [TILMICOSIN], the inhibition at 50 µM stood at 16%. `CCS(=O)(=O)CCn1c([N+](=O)[O-])cnc1C` [TINIDAZOLE]: the inhibition at 50 µM came out at 1%. In the case of `Clc1ccc(C(Cn2ccnc2)OCc2ccsc2Cl)c(Cl)c1` (centres unmarked) [TIOCONAZOLE], the inhibition at 50 µM was found to be 2%. `O=c1oc2cc(O)ccc2s1` [TIOXOLONE]: the inhibition at 50 µM came to 88%. Regarding `NC[C@H]1O[C@H](O[C@H]2[C@H](O)[C@@H](O[C@H]3O[C@H](CO)[C@@H](O)[C@H](N)[C@H]3O)[C@H](N)C[C@@H]2N)[C@H](N)C[C@@H]1O` [TOBRAMYCIN], the inhibition at 50 µM amounted to 0%. Same read-out and setting: to `CCOC(=O)NNc1nncc2ccccc12` [TODRALAZINE HYDROCHLORIDE] belongs 2%. On to `Cc1c(Cl)cccc1Nc1ccccc1C(=O)O` [TOLFENAMIC ACID], for which the inhibition at 50 µM is 97%.

With `Cc1ccc(C(=O)c2ccc(CC(=O)O)n2C)cc1` [TOLMETIN SODIUM], the inhibition at 50 µM is 1%. Consider `C[C@H]1CC[C@]2(NC1)O[C@H]1C[C@H]3[C@@H]4CC[C@H]5C[C@@H](O[C@@H]6O[C@H](CO)[C@H](O[C@@H]7O[C@H](CO)[C@@H](O)[C@H](O[C@@H]8OC[C@@H](O)[C@H](O)[C@H]8O)[C@H]7O[C@@H]7O[C@H](CO)[C@@H](O)[C@H](O)[C@H]7O)[C@H](O)[C@H]6O)CC[C@]5(C)[C@H]4CC[C@]3(C)[C@H]1[C@@H]2C` [TOMATINE], for which the inhibition at 50 µM stood at 2%.

In the case of `CC1(C)O[C@@H]2[C@@H](CO[C@@]3(COS(N)(=O)=O)OC(C)(C)O[C@@H]23)O1` [TOPIRAMATE], the inhibition at 50 µM was found to be 1%. As for `CC[C@@]1(O)C(=O)OCc2c1cc1n(c2=O)Cc2cc3c(CN(C)C)c(O)ccc3nc2-1` [TOPOTECAN HYDROCHLORIDE], the inhibition at 50 µM was determined as 0%. The same measure, in the same setting: for `Cc1ccc(S(=O)(=O)NCl)cc1` [TOSYL[…]] the value was 3%; for `CC(=O)Oc1ccc(/C=C/c2cc(OC(C)=O)cc(OC(C)=O)c2)cc1` [TRIACETYLRESVERATROL], 1%; for `C[C@]12C=CC(=O)C=C1CC[C@H]1[C@@H]3C[C@@H](O)[C@](O)(C(=O)CO)[C@@]3(C)C[C@H](O)[C@@]12F` [TRIAMCINOLONE], 11%. Same read-out and setting: to `NS(=O)(=O)c1cc2c(cc1Cl)NC(C(Cl)Cl)NS2(=O)=O` (centres unmarked) [TRICHLORMETHIAZIDE] belongs 1%; to `Oc1cc(Cl)ccc1Oc1ccc(Cl)cc1Cl` [TRICLOSAN], 2%. For the molecule `CN(C)CCCN1c2ccccc2Sc2ccc(C(F)(F)F)cc21` [TRIFLUPROMAZINE HYDROCHLORIDE], the inhibition at 50 µM came to 122%. Turning to `COc1cc(Cc2cnc(N)nc2N)cc(OC)c1OC` [TRIMETHOPRIM], the inhibition at 50 µM was found to be 0%. On to `CC(CN(C)C)CN1c2ccccc2CCc2ccccc21` (centres unmarked) [TRIMIPRAMINE MALEATE], for which the inhibition at 50 µM came to 111%. Turning to `CN(C)CCN(Cc1ccccc1)c1ccccn1` [TRIPELENNAMINE CITRATE], the inhibition at 50 µM turned out to be 2%. Same read-out and setting: for `Cc1c(C)c2c(c(C)c1O)CCC(C)(C(=O)O)O2` (centres unmarked) [TROLOX] the value was 0%. `N[C@@H](Cc1ccc(O)cc1)C(=O)O` [TYROSINE]: the inhibition at 50 µM was determined as 1%. Consider `COC1=C(OC)C(=O)C(C/C=C(\C)CC/C=C(\C)CC/C=C(\C)CC/C=C(\C)CC/C=C(\C)CC/C=C(\C)CC/C=C(\C)CC/C=C(\C)CC/C=C(\C)CCC=C(C)C)=C(C)C1=O` [UBIDECARENEONE], for which the inhibition at 50 µM came to 1%. With `C=CCCCCCCCCC(=O)O` [UNDECYLENIC ACID], the inhibition at 50 µM came out at 1%. Regarding `COc1ccccc1N1CCN(CCCNc2cc(=O)n(C)c(=O)n2C)CC1` [URAPIDIL HYDROCHLORIDE], the inhibition at 50 µM was determined as 1%. Still for that read-out and setting: to `CC(=O)c1c(O)c(C)c(O)c2c1OC1=CC(=O)C(C(C)=O)C(=O)C12C` (centres unmarked) [USNIC ACID] belongs 204%; to `CCC(C)C(=O)O[C@@H]1C[C@@]2(C)[C@H](c3ccoc3)OC(=O)CC23OC2(C)O[C@]14[C@]1(C)[C@@H](CC(=O)OC)C5(C)CC1(O)[C@](O)(C5OC(=O)C1(C)OC1C)[C@@H](OC(C)=O)[C@]34O2` (some centres unmarked) [UTILIN], 1%.

As for `CC(C)[C@H](N)C(=O)OCCOCn1cnc2c(=O)[nH]c(N)nc21` [VALACYCLOVIR HYDROCHLORIDE], the inhibition at 50 µM was found to be 2%. Same read-out and setting: for `CCCCC(=O)Oc1ccccc1C(=O)O` [VALERYL SALYCILATE] the value was 1%.

As for `CCCC(CCC)C(=O)O` [VALPROATE SODIUM], the inhibition at 50 µM was found to be 0%.

With `CN[C@H](CC(C)C)C(=O)N[C@H]1C(=O)N[C@@H](CC(N)=O)C(=O)N[C@H]2C(=O)N[C@H]3C(=O)N[C@H](C(=O)N[C@H](C(=O)O)c4cc(O)cc(O)c4-c4cc3ccc4O)[C@H](O)c3ccc(c(Cl)c3)Oc3cc2cc(c3O[C@@H]2O[C@H](CO)[C@@H](O)[C@H](O)[C@H]2O[C@H]2C[C@](C)(N)[C@H](O)[C@H](C)O2)Oc2ccc(cc2Cl)[C@H]1O` [VANCOMYCIN HYDROCHLORIDE], the inhibition at 50 µM was determined as 0%. Regarding `CCCc1nc(C)c2c(=O)[nH]c(-c3cc(S(=O)(=O)N4CCN(CC)CC4)ccc3OCC)nn12` [VARDENAFIL HYDROCHLORIDE], the inhibition at 50 µM stood at 1%. Take `CC(=O)O[C@H]1C[C@@H]2CC[C@@H]3[C@H](CC[C@@]4(C)[C@H]3C[C@H]([N+]3(C)CCCCC3)[C@@H]4OC(C)=O)[C@@]2(C)C[C@@H]1N1CCCCC1` [VECURONIUM BROMIDE]: the inhibition at 50 µM is 1%.

Staying with this test, now noted: 50 µM.
Regarding `CN(C)CCOc1ccc(/C(=C(/CCCl)c2ccccc2)c2ccccc2)cc1` [TOREMIPHENE CITRATE], the “Inhibition (%)” value is reported as 138. As for `Cl.Cl.NCCNCCNCCN` [TRIENTINE HYDROCHLORIDE], the “Inhibition (%)” value is 13. The same measure, in the same setting: to `O=C([O-])CN(CCN(CC(=O)[O-])CC(=O)O)CC(=O)[O-].[Na+].[Na+].[Na+]` [TRISODIUM ETHYLENEDIAMINE TETRACETATE] belongs 1; to `COc1cc2c3cc1Oc1cc(ccc1O)C[C@@H]1c4c(cc(OC)c(O)c4Oc4ccc(cc4)C[C@@H]3N(C)CC2)CC[N+]1(C)C.Cl.O.O.O.O.O.[Cl-]` [TUBOCURARINE CHLORIDE], 0. With `CC[C@H]1OC(=O)C[C@@H](O)[C@H](C)[C@@H](O[C@@H]2O[C@H](C)[C@@H](O[C@H]3C[C@@](C)(O)[C@@H](O)[C@H](C)O3)[C@H](N(C)C)[C@H]2O)[C@@H](CC=O)C[C@@H](C)C(=O)/C=C/C(C)=C/[C@@H]1CO[C@@H]1O[C@H](C)[C@@H](O)[C@@H](OC)[C@H]1OC` [TYLOSIN TARTRATE], the “Inhibition (%)” value amounted to 1. On the same count and under the same terms, to `O=c1ccn([C@@H]2O[C@H](COP(=O)([O-])OP(=O)([O-])OP(=O)([O-])O)[C@@H](O)[C@H]2O)c(=O)[nH]1.[Na+].[Na+].[Na+]` [URIDINE TRIPHOSPHATE TRISODIUM] belongs 1.
